These results are taken from patent US20220175761A1, “BI-LIGAND DRUG CONJUGATE AND USE THEREOF” (COHERENT BIOPHARMA (SUZHOU), LIMITED, priority 2019, published 2022).

What all share (assay): Inhibition of cell line proliferation, CCK8
Holding throughout (assay type): cell-based

Assay [1] deals with LNCaP (human prostate cancer cells). The following applies: LNCaP; for IC50: 68-72 hours, CCK8.
For assay [2], the system named is 22RV1 (human prostate cancer cells). The following applies: for IC50: 22RV1, 68-72 hours, CCK8. The source says: Since different cells have different sensitivity to a cell proliferation inhibitory toxicity of the payload in a ligand conjugate, the quantitative analysis may be interfered occasionally. A series of cell lines with known expression levels of receptors of different ligands were selected and tested for the response to inhibitory effects of the cell proliferation of a ligand conjugate and a single payload. The IC50 ratio of a single payload to that of a ligand conjugate in same cell line were taken to remove such interference.
(§1) Experimental operations: LNCaP and 22RV1 cells were prepared in advance, counted, and plated in 96-well cell culture plates at a cell density of 4×10^4 cells/ml and 2.0×10^4 cells/ml, respectively (100 μl/well); negative control and blank control wells were set on each plate. After adherent cell culture overnight, the diluted samples to be tested were added at 50 μl/well. The plates were placed in an incubator at 37° C., 5% CO2 and cultured for 68-72 hours. To each well, 15 μl (10% of the liquid volume in a well) of a color developing solution from CCK8 was added; and the plates were incubated at 37° C. for 45-70 minutes and each plate was read at 450 nm on a microplate reader. The data was edited using SoftMax Pro and a 4-P fitting curve was plotted.

Assay [3] concerns CFPAC-1 (human pancreatic cancer cells). To be noted: for IC50: CFPAC-1, 68-72 hours, CCK8.
In assay [4] the test system is PANC-1 (human pancreatic cancer cells). The following applies: for IC50: PANC-1, 68-72 hours, CCK8. The protocol: as §1, with “PANC-1” for “LNCaP”, “CFPAC-1” for “22RV1”, “cells/ml” for “cells/ml and 2.0×10^4 cells/ml, respectively”
(§2) Experimental operations: LNCaP, SK-BR-3, NCI-H226, CFPAC-1 and PANC-1 cells were prepared in advance and counted; with a culture medium (IMDM+10% FBS+1× L-Glutamine+1×P/S), the cells LNCaP, SK-BR-3 and CFPAC-1 were diluted to 4×10^4 cells/ml, NCI-H226 was diluted to 2.0×10^4 cells/ml and PANC-1 was diluted to 3.0×10^4 cells/ml; the diluted cell solution was plated in 96-well plates at 100 μl/well; and negative control and blank control wells were set on each plate. After adherent cell culture overnight, the diluted samples to be tested were added at 50 μl/well. The plates were placed in an incubator at 37° C., 5% CO2 and cultured for 68-72 hours. To each well, 15 μl (10% of the liquid volume in a well) of a color developing solution from CCK8 was added; and the plates were incubated at 37° C. for 45-70 minutes and each plate was read at 450 nm on a microplate reader. The data was edited using SoftMax Pro and a 4-P fitting curve was plotted.
as §2, with “Operations:” for “operations:”, “MDA-MB-468,” for “SK-BR-3, NCI-H226,”, “MDA-MB-468” for “SK-BR-3”, “cells/ml,” for “cells/ml, NCI-H226 was diluted to 2.0×10^4 cells/ml”

Several values for one entry are separate records, joined by “and”; a condition that tells them apart may be missing. Equal entries are not always repeated. Square brackets hold non-standard residues; d marks the D form. Peptide text beside a SMILES is read from it. * marks the point of attachment. Dolaproine = CO[C@@H]([C@@H]1CCCN1)[C@@H](C)C(=O)O; Dil = CC[C@H](C)[C@H](NC)[C@@H](CC(=O)O)OC; X1 = C[C@@H](N*)[C@@H](O)c1ccccc1; NMeV = CN[C@H](C(=O)O)C(C)C

`CC[C@H](C)[C@@H]([C@@H](CC(=O)N1CCC[C@H]1[C@H](OC)[C@@H](C)C(=O)N[C@H](C)[C@@H](O)c1ccccc1)OC)N(C)C(=O)[C@@H](NC(=O)[C@@H](NC)C(C)C)C(C)C` [MMAE, monomethyl auristatin E] (H-[NMeV]V[Dil][Dolaproine]-X1): the IC50 (commonly the concentration at which inhibition is half-maximal) is 0.00255 µM and 0.003 µM in assay [1]; 0.00648 µM in assay [2]; 0.015 µM in assay [3]; 0.002 µM in assay [4].

Consider `CC[C@H](C)[C@@H]([C@@H](CC(=O)N1CCC[C@H]1[C@H](OC)[C@@H](C)C(=O)N[C@H](C)[C@@H](O)c1ccccc1)OC)N(C)C(=O)[C@@H](NC(=O)[C@H](C(C)C)N(C)C(=O)OCc1ccc(NC(=O)C(CCCNC(N)=O)NC(=O)[C@@H](NC(=O)CCCCCN2C(=O)CC(SC[C@H](NC(=O)[C@H](CCCCN)NC(=O)[C@H](CC(=O)O)NC(=O)[C@H](CC(=O)O)NC(=O)Cc3ccc(CNC(=O)NCCCC[C@H](NC(=O)N[C@@H](CCC(=O)O)C(=O)O)C(=O)O)cc3)C(=O)N[C@@H](CCCCNC(=O)CC[C@H](NC(=O)c3ccc(NCc4cnc5[nH]c(N)nc(=O)c5n4)cc3)C(=O)O)C(N)=O)C2=O)C(C)C)cc1)C(C)C` (stereo partly drawn) [CB-20BK], for which the “IC50 ratio (MMAE/conjugate)” value in assay [1] is recorded as 0.0267; in assay [2] (22RV1), 0.013. In addition, the IC50 is 0.0958 µM in assay [1], 0.502 µM in assay [2], 0.557 µM in assay [3] and 0.126 µM in assay [4]. The “IC50 (MMAE)/IC50 (conjugate)” value came out at 0.027 in assay [3] (CFPAC-1) and 0.020 in assay [4] (PANC-1).
